Read-outs that look alike come from different tables or passages of the source.
Legend:
hPASMCs = assay: hPASMC proliferation on fibronectin-coated plates; assay type: cell-based, human; settings: fibronectin-coated 96 well plate, up to 5 days
Experimental: Antibody integrin α5β1 inhibitors were evaluated to determine whether integrin α5β1 inhibitors (e.g., P1D6 antibody or M200 antibody) could impair proliferation. Cells were seeded at 3000 cells/well in a 96 well plate coated with fibronectin. The next day integrin α5β1 inhibitor treatments were added and proliferation was monitored for up to 5 days.

[1] = cited from earlier work
[2] = at room temperature; cited from earlier work
PAH-PASMCs = assay: Proliferation (Ki67) and apoptosis (annexin V) of PAH-PASMCs on Fb-coated plates; assay type: cell-based, human; settings: 0.25 μM, 1 μM, and 4 μM on Fb-coated plates
Experimental: Integrin α5β1 inhibitors (MRT, SMi, P1D6, or M200) were assessed for proliferation and apoptosis on Fb-coated plates. FIG. 5A-5C show exemplary proliferation (Ki67) and apoptosis (annexin V) of PAH-PASMCs treated with integrin α5β1 inhibitors (MRT, SMi, P1D6, or M200).
PAH-PASMCs were treated with integrin α5β1 inhibitor SMi at 0.25 μM, 1 μM, and 4 μM on Fb-coated plates. Cells were evaluated by Western blot analysis to determine expression levels of ITGα5, ITGαV, ITGβ1, p-FAK, MCM2, PLK1, p-ERK, ERK, PCNA and Survivin in hPASMCs (FIG. 6A-6B).

[3] = test system: Primary rat cardiomyocytes; assay: PE-induced cardiomyocyte hypertrophy; assay type: cell-based; settings: 100 μM PE; 0.25 μM, 1 μM, and 4 μM
Experimental: Primary rat cardiomyocytes were treated with 50 μM, 100 μM, or 200 μM, phenylephrine (PE). Expression of ITGα5, ITGαV, ITGβ1, ITGβ3, ITGβ5 were determined by western blot (FIG. 21A). Cells treated with 100 μM PE were simultaneously exposed to integrin α5β1 inhibitor SMi at 0.25 μM, 1 μM, and 4 μM.

Human PAH-RVFbs = assay: PAH-RVFbs proliferation and activation; assay type: cell-based; settings: 0.25 μM, 1 μM, and 4 μM
Experimental: PAH patient samples were assessed for expression of fibronectin binding integrins. […] Human PAH-RVFbs were treated with integrin α5β1 inhibitor SMi at 0.25 μM, 1 μM, and 4 μM. […] (FIGS. 22A and 22B).

SuHx rats = assay: Sugen/Hypoxia (SuHx) induced PAH rat model; assay type: in vivo
Experimental: Broad-spectrum pharmacological inhibition of α5β1 improves hemodynamics and vascular remodeling in Su/Hx rats with established PAH alone or in combination with standard of care.
Animals were injected with 20 mg/kg Sugen 5416 at day 0 and subjected to hypoxia conditions (10% oxygen) for 3 weeks. Echocardiography was performed at the start of treatment with integrin α5β1 inhibitors at week 3 and at week 5. Right heart catheterization was performed at the end of week 5. Tissues were harvested for analysis.

SuHx mice = assay: Sugen/hypoxia (SuHx) mice model of PAH; assay type: in vivo, mouse; settings: SMi 100 mpk PO BID, 339.1 10 mpk IP 3x week
Experimental: SuHx treated mice were prepared as described above and treated with integrin α5β1 antibody inhibitors (e.g., anti-mouse integrin α5β1 clone 339.1) or SMi. anti-mouse integrin α5β1 clone 339.1 is described in Bhaskar, V., Zhang, D., Fox, M. et al. A function blocking anti-mouse integrin α5β1 antibody inhibits angiogenesis and impedes tumor growth in vivo. J Transl Med 5, 61 (2007). doi.org/10.1186/1479-5876-5-61), which is hereby incorporated by reference in its entirety.
Mice were injected with 20 mg/kg Sugen 5416 (vascular endothelial growth factor receptor inhibitor) at day 0, day 7 and day 14 and subjected to hypoxia conditions (10% oxygen) for 3 weeks. Echocardiography was performed at the start of treatment with integrin α5β1 inhibitors at week 3 (e.g., day 21) and at the end of week 5. Right heart catheterization was performed at the end of week 5.
Cardiac function was measured including improved cardiac output, and stroke volume. Other features including media cell wall thickness, vascular remodeling, proliferation, and apoptosis were measured.
Mice were divided into the following treatment and control groups: • Control group (n=5) • Vehicle PO BID (n=10) • SMi 100 mpk PO BID (n=10) • Macitentan 15 mpk PO BID (n=15) • IgG isotype control10 mpk IP (3× week) (n=15) • 339.1 10 mpk IP (3× week) (n=15) • 339.1 10 mpk IP+Macitentan 15 mpk PO BID (n=15)

MCT rats = assay: Monocrotaline (MCT) rat pulmonary hypertension model; assay type: in vivo
Experimental: MCT Animals were divided into study groups as follows: • (1) Non-MCT vehicle orally twice a day (BID) (n=6) • (2) MCT+PBS vehicle orally twice a day (BID) (n=8) • (3) MCT+SMi at 100 mpk orally BID (n=8)
MCT (60 mg/kg) was administered by subcutaneous injection. Animals were exposed to vehicle or SMi treatment for 2 weeks. Blood, RV and lung analysis was performed. Cells were assessed for expression of EVG, αSMA, PCNA, and C3C. […] FIG. 12A-12D show exemplary results of treatment with SMi in MCT rats. Occlusion score (FIG. 12A), vascular remodeling (FIG. 12B), apoptosis (FIG. 12C) and proliferation (FIG. 12D) were measured.
MCT animals were treated with SMi alone or in combination with SoC therapy (Macitentan (1 mg/kg)+Tadalafil (10 mg/kg) daily). MCT Animals were divided into study groups as follows: • (1) Non-MCT vehicle orally twice a day (BID) (n=6) • (2) MCT+PBS vehicle orally twice a day (BID) (n=8) • (3) MCT+SMi at 100 mpk orally BID (n=8) • (4) MCT+SMi at 100 mpk orally BID+SoC (Macitentan (1 mg/kg)+Tadalafil (10 mg/kg) daily (n=8).
MCT (60 mg/kg) was administered by subcutaneous injection at day 0. Beginning in week 3, animals were exposed to vehicle or SMi treatment for 2 weeks. (FIG. 23A) Blood, RV and lung analysis was performed.
To determine the selectivity of SMi for α5β1, MCT animals were prepared as described above and treated with SMi or a dual inhibitor of α5β1/αvβ1 (MRT).

MCT animals = MCT animals with a cardiac defect, echocardiography; assay type: in vivo; settings: 100 mg/Kg PO BID, Day 14 to Day 27, PH phenotype not induced
Experimental: To test the impact of SMi on cardiac function, MCT animals with a cardiac defect were treated with SMi or sildenafil as follows (1) Non-MCT vehicle PO BID; (2) MCT+vehicle PO BID (3) MCT+SMi 100 mg/Kg PO BID (4) MCT+sildenafil 10 mg/Kg PO BID (5) MCT+sildenafil 30 mg/Kg PO BID (6) MCT+sildenafil 100 mg/Kg PO BID. Pulmonary hypertension phenotype was not induced in this study (MCT causes both vascular and cardiac injury). Treatment with SMi, vehicle or sildenafil was administered, twice a day, from Day 14 to Day 27. Echocardiogram monitoring of the progression of the disease was carried out on Day 0, Day 14 and on surgery day (Day 28) for all the animals. Blood samples were taken on Day 0, Day 14 and Day 28. Pulmonary artery maximum velocity, cardiac output, stroke volume, right ventricle anterior wall thickness and pulmonary artery acceleration time were determined. […] The data were used to calculate the cardiac output and the stroke volume as follows: The cardiac output was calculated using the following formula (JF Lewis et al. 1984): Cardiac output=heart rate×VTI((pulmonary artery diameter^2×3.1416)/4) The stroke volume was calculated using the following formula: Stroke volume=cardiac output/heart rate

PAB rats = assay: Pulmonary Arterial Banding (PAB) rat model; assay type: in vivo
Experimental: Animals were divided into three study groups as follows: • (1) Control group/Sham (n=5) • (2) PAB+PBS vehicle orally twice a day (BID) (n=10) • (3) PAB+SMi at 100 mpk orally BID (n=10)
Pulmonary arterial constriction was surgically performed in rats at day 0. Beginning in week 4 following surgery, animals were exposed to vehicle or SMi treatment. Weekly echocardiography was performed from surgery to week 10. After a total of 10 weeks, animals were subjected to RV catheterization.
PAB rats were subjected to right heart catheterization (RHC) (using standard techniques and while the subject is in steady state). Treatment with integrin α5β1 inhibitor, SMi improved cardiac output, stroke volume, RVSP and RVEPD.

[4] = molecular target: integrin α5β1 on hPASMCs (human) (UniProt P08648); assay: cell-based or functional assay
Sequence of integrin α5β1 on hPASMCs (human) (P08648 42-1049, chain 1 of 2): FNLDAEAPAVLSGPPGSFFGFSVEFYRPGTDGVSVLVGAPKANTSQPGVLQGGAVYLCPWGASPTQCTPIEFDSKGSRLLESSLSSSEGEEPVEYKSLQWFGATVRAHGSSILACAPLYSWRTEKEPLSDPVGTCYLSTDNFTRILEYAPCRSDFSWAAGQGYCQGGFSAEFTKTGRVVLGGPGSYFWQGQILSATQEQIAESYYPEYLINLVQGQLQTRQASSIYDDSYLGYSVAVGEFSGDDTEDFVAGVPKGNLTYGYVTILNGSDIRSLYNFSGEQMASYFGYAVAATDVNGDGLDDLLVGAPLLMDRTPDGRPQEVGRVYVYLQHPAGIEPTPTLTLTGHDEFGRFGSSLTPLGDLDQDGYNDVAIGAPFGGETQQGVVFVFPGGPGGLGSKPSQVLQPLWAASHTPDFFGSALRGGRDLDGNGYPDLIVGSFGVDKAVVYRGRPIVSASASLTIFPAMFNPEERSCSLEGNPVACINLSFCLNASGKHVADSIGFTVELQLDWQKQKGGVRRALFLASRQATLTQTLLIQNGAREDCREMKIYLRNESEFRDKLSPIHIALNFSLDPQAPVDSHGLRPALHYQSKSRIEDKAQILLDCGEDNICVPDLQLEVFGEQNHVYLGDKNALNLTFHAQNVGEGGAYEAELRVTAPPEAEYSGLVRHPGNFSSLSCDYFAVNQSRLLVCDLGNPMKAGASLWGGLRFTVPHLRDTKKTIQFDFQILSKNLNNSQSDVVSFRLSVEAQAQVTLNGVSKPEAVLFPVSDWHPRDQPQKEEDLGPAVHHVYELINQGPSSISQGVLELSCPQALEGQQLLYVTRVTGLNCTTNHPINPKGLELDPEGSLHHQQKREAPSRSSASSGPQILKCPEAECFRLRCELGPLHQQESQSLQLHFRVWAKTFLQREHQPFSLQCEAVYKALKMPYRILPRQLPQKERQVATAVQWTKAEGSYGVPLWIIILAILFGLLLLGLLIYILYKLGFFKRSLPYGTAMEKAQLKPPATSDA
Sequence of integrin α5β1 on hPASMCs (human) (P05556 21-798, chain 2 of 2, further chain): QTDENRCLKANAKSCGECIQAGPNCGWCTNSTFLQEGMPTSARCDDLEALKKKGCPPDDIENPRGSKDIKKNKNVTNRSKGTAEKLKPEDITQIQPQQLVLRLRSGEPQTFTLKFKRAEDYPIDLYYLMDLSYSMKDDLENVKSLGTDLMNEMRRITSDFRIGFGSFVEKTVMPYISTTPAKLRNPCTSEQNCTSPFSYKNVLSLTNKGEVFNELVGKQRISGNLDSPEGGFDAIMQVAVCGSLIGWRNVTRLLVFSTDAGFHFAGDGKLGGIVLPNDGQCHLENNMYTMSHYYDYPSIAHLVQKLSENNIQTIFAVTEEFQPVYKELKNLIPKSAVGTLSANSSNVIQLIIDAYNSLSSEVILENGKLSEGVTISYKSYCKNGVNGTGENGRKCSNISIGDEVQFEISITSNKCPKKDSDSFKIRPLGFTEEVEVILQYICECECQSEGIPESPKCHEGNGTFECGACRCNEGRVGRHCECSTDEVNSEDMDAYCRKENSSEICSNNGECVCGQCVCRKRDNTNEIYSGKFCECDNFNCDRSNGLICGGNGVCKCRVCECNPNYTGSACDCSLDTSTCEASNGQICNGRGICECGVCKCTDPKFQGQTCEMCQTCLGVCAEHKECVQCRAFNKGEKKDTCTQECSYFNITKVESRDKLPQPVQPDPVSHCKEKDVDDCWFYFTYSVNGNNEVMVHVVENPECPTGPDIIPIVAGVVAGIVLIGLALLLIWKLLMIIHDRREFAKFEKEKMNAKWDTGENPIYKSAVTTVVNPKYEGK

[5] = molecular target: rat α5β1 (cells expressing rat α5β1) (rat); assay: cell-based or functional assay
[6] = molecular target: rat α5β1 (cells expressing rat α5β1) (rat, UniProt A0A0G2K1E2 94-1099; P49134 21-798); assay: cell-based or functional assay

Question: For “M200: integrin α5β1 antibody, heavy chain SEQ ID NO: 1, light chain SEQ ID NO: 2”, which “proliferation of hPASMCs” value (hPASMCs) is on record?
Answer: Its value is “reduced proliferation”.

Question: Which half-life ([1]; in vivo) does the source give for `CCCCC[C@H](O)/C=C/[C@@H]1[C@H]2C/C(=C/CCCC(=O)O)O[C@H]2C[C@H]1O` [Flolan, epoprostenol] here?
Answer: Its half-life is 0.05 to 0.083 h.

Question: And the stability [2]?
Answer: The stability was 8 h.

Question: Which “apoptosis (annexin V)” value (PAH-PASMCs) does the source give for `Cc1nn(C)c2c(C(C(=O)O)N3CC(OCCCCc4ccc5c(n4)NCCC5)C3)cccc12` (stereo not drawn) [SMi] here?
Answer: Its value is “increased apoptosis”.

Question: And the “proliferation (Ki67)” value (PAH-PASMCs)?
Answer: The value was “impaired proliferation”.

Question: And the “PE-induced adult rat cardiomyocytes hypertrophy” value [3]?
Answer: Its value is “prevents PE-induced adult rat cardiomyocytes hypertrophy”.

Question: And the “PAH-RVFbs proliferation and activation” value (Human PAH-RVFbs)?
Answer: The value was “decreases PAH-RVFbs proliferation and activation in a dose dependent manner”.

Question: And the apoptosis (SuHx rats; SMi and/or SoCs)?
Answer: The apoptosis was “improved”.

Question: And the fibrosis (SuHx rats; SMi and/or SoCs)?
Answer: The fibrosis was “reduced”.

Question: What about the hypertrophy (SuHx rats; SMi and/or SoCs) of the same molecule?
Answer: The hypertrophy was “reduced”.

Question: And the “media cell wall thickness” value (SuHx rats; SMi and/or SoCs)?
Answer: Its value is “improved”.

Question: And the proliferation (SuHx rats; SMi and/or SoCs)?
Answer: Its proliferation is “improved”.

Question: And the stroke volume (SuHx rats; SMi and/or SoCs)?
Answer: Its stroke volume is “improved”.

Question: What about the vascular remodeling (SuHx rats; SMi and/or SoCs) of the same molecule?
Answer: The vascular remodeling was “improved”.

Question: And the cardiac output (SuHx rats; SMi and/or SoCs (Macitentan, Tadalafil))?
Answer: Its cardiac output is “improved”.

Question: And the “cardiac and vascular improvement” value (SuHx mice)?
Answer: Its value is “cardiac and vascular improvement”.

Question: And the “cardiac function vascular remodeling (EVG, media wall thickness, mPAP, cardiac output, RVFAC)” value (MCT rats)?
Answer: Its value is “improved cardiac function vascular remodeling”.

Question: And the vascular remodeling (MCT rats; 100 mpk orally BID, 2 weeks)?
Answer: The vascular remodeling was “improved vascular remodeling”.

Question: What about the “hypertrophy and right ventricle (RV) fibrosis” value (MCT rats; SMi alone or in combination with SoCs) of the same molecule?
Answer: The value was “improved”.

Question: And the vascular remodeling (MCT rats; SMi alone or with Maci (1 mg/kg) + Tada (10 mg/kg))?
Answer: Its vascular remodeling is “improved vascular remodeling”.

Question: What about the cardiac output (MCT animals) of the same molecule?
Answer: Its cardiac output is “considerable increase”.

Question: And the “hypertrophy and right ventricle (RV) fibrosis” value (PAB rats; 100 mpk orally BID)?
Answer: The value was “improved”.

Question: And the “cardiac function over time compared to vehicle control” value (PAB rats; echocardiography)?
Answer: The value was “directly improved cardiac function”.

Question: What about the RVEPD (PAB rats; right heart catheterization) of the same molecule?
Answer: Its RVEPD is “improved”.

Question: And the RVSP (PAB rats; right heart catheterization)?
Answer: The RVSP was “improved”.

Question: What about the cardiac output (PAB rats; right heart catheterization) of the same molecule?
Answer: Its cardiac output is “improved”.

Question: What about the stroke volume (PAB rats; right heart catheterization) of the same molecule?
Answer: Its stroke volume is “improved”.

Question: Which reduction of hPASMCs proliferation [4] does the source give for P1D6 (antibody) here?
Answer: The reduction of hPASMCs proliferation was 70%.

Question: What about the IC50 (nM), cell adhesion assay [5] of the same molecule?
Answer: Its IC50 (nM), cell adhesion assay is 5.6 nM.

Question: What about the IC50 (ug/ml), cell adhesion assay [5] of the same molecule?
Answer: Its IC50 (ug/ml), cell adhesion assay is 0.84 µg/mL.

Question: Which half-life ([1]; in patients with PAH) does the source give for `CN1CC(=O)N2[C@H](c3ccc4c(c3)OCO4)c3[nH]c4ccccc4c3C[C@@H]2C1=O` [Tadalafil, tadalafil] here?
Answer: Its half-life is 35 h.

B1: volociximab (M200) (antibody, human IgG4, kappa, V domains shown)
VH: QVQLKESGPGLVAPSQSLSITCTISGFSLTDYGVHWVRQPPGKGLEWLVVIWSDGSSTYNSALKSRMTIRKDNSKSQVFLIMNSLQTDDSAMYYCARHGTYYGMTTTGDALDYWGQGTSVTVSS
VL: QIVLTQSPAIMSASLGERVTMTCTASSSVSSNYLHWYQQKPGSAPNLWIYSTSNLASGVPARFSGSGSGTSYSLTISSMEAEDAATYYCHQYLRSPPTFGGGTKLEIKR
Question: With B1 as the molecule, how does the “IC50 (nM), cell adhesion assay” value [6] read?
Answer: Its value is 6.8 nM.

Question: What about the “IC50 (ug/ml), cell adhesion assay” value [6] of the same molecule?
Answer: Its value is 1 µg/mL.

Reference: US20250066485A1, “USE OF INTEGRIN a5b1 INHIBITORS IN THE TREATMENT OF PULMONARY HYPERTENSION AND HEART FAILURE” (Morphic Therapeutic, Inc., priority 2022, published 2025)
